Measurements published in US10711278B2, “Genetically altered alfalfa producing clovamide and/or related hydroxycinnamoyl amides” (The United States of America, as represented by the …, priority 2015, dated 2020).

B1: hydroxycinnamoyl-CoA:L-DOPA/tyrosine hydroxycinnamoyl transferase 1 (protein)
chain: MVTIIASHTVIPEEPTPQGPFWLSDMDQVVRIRDVPTLYIYKTPKKNQENKNIVETFKNSLSKILVHYYPIAGRLCYIEGGRLELNLNAKGAILVEAETEKTMNDYGDFSHFDTIKELVPMIDYNQPIEEIPNFVVQLTNFKNNEGFAIGVAFLHPLSDGLGAIKFINSWAKIARGETLEANELPFLDRKLLKFSHTPLEPRFEHLELKPLPLILGRKDASEEKEKKTSATLLKLSSEQVDKLKKKANEEDVLGIQKKEYSRPYSKFEVISAHIWRCASKARELEDNQESVIRFIADVKNRMIPPLPKNYFGNALTQTATKGYIGEITSKPLGYVAQKIREATELINDEYIRSQIDVVRSFEHLDDARKMFIGEKARYFGNPNFNLTSWLSMPVYEADFGWGKPNYFGLADVSPHDRAVILLSPDDDGSVLVSFHFQIAHMELFNKYFYEEI
modifications: Trifolium pratense
B2: hydroxycinnamoyl-CoA:L-DOPA/tyrosine hydroxycinnamoyl transferase 2 (protein)
chain: MVTIIASHTVIPEEPTPQGPFWLSDMDQVVRIRDVPTLYIYKTPKKNQENKNIVETFKNSLSKILVHYYPIAGRLCYIEGGRLELNLNAKGAILVEAETEKTMNDYGDFSHFDTIKELVPMIDYNQPIEEIPNFVVQLTKFKNNEGFAIGVAFLHPLSDGLGAIKFINSWAKIARGETLEANELPFLDRKLLKFSHTPLEPRFEHLELKPLPLILGRKDASEEKEKKTSATLLKLSSEQVDKLKKKANEEDVLGVQKKEYSRPYSKFEVISAHIWRCASKARELKDNQESVIRFIADVKNRMIPPLPKNYFGNALTQTATKGYIGEITSKPLGYVAQKIREATELVNDEYIRSQIDVVRSFEHLDDARKMFIGEKARYFGNPNFNLTSWLSMPVYEADFGWGKPNYFGLADVSPHDRAVILLSPDDDGSVLVSFHLQIAHMELFNKYFYEEI
modifications: Trifolium pratense

How the values were obtained:
[1] = cited from earlier work
[2] = In-vitro hydroxycinnamoyl-CoA transferase activity of soluble E. coli extracts expressing HDT1 or HDT2, HPLC of products; assay type: biochemical, Trifolium pratense; settings: expressed in E. coli; p-coumaroyl-, caffeoyl-, and feruloyl-CoA
Excerpt: Plasmids containing full-length red clover HDT coding regions (both HDT1 (SEQ ID NO: 1) and HDT2 (SEQ ID NO: 3)) were used as templates in PCR reactions with primers designed to introduce an […] restriction site at the start codons (ms886—SEQ ID NO: 13) and an XhoI site immediately following the stop codon (ms887—SEQ ID NO: 14) of each open reading frame. The resulting PCR products were digested with NcoI and XhoI and inserted into pET28a (Novagen, Madison, Wis.) digested with NcoI and XhoI. The insert is operably linked to the IPTG-inducible promoter contained in pET28. Each plasmid was sequenced to confirm correct sequence was generated.
Each pET28 derivative containing HDT coding regions (pET28-HDT1 and pET28-HDT2) or pET28 (as a negative control) were transformed, individually, into BL21(DE3)RIL Codon Plus E. coli (Agilent Technologies, Santa Clara, Calif.). […] The soluble fraction was isolated, divided into single use aliquots, flash frozen in liquid nitrogen and stored at −80° C. until ready to use. […]
The supernatant is analyzed for reaction products by HPLC. […]

| Molecule | HDT activity ([1]; HCT2 gene product produced in E. coli) | preference for p-coumaroyl-CoA and feruloyl-CoA donor substrates over caffeoyl-CoA ([1]; in-vitro) | transfer of trans-hydroxycinnamoyl moiety from CoA derivative to L-DOPA or L-tyrosine [2] |
| --- | --- | --- | --- |
| hydroxycinnamoyl-CoA:malate hydroxycinnamoyl transferase [HMT] | does not have HDT activity | five- to tenfold |  |
| B1 |  |  | capable of transferring a trans-hydroxycinnamoyl moiety |
| B2 |  |  | capable of transferring a trans-hydroxycinnamoyl moiety |
